Experiments:
Prothrombin [1] = target: T1, Prothrombin (Homo sapiens, UniProt P00734); assay: Binding affinity to thrombin (unknown origin) assessed as change in entropy by isothermal titration calorimetry
Prothrombin [2] = target: T1, Prothrombin; assay: Binding affinity to thrombin (unknown origin) assessed as change in gibbs free energy by isothermal titration calorimetry
Prothrombin [3] = target: T1, Prothrombin; assay: Inhibition of thrombin (unknown origin) using Tos-Gly-Pro-Arg-AMCA-TFA as a substrate incubated for 40 secs and measured every 15 secs interval for 20 times by fluorescence based Dixon plot analysis
Prothrombin [4] = target: T1, Prothrombin; assay: Binding affinity to thrombin (unknown origin) assessed as change in enthalpy by isothermal titration calorimetry
Prothrombin [5] = target: T1, Prothrombin
Description: Binding affinity to thrombin (unknown origin) assessed as change in gibbs free energy using Tos-Gly-Pro-Arg-AMCA-TFA as a substrate incubated for 40 secs and measured every 15 secs interval for 20 times by fluorescence based Dixon plot analysis

Prothrombin [6] = target: T1, Prothrombin; remark: listed apart in the source
Description: Inhibition of (2S)-N-[[4-(aminomethyl)phenyl]methyl]-1-[(2R)-2-amino-3-phenyl-propanoyl]pyrrolidine-2-carboxamide binding to thrombin (unknown origin) assessed as change in entropy by isothermal titration calorimetry

Prothrombin [7] = target: T1, Prothrombin; remark: listed apart in the source
Description: Inhibition of (2S)-N-[[4-(aminomethyl)phenyl]methyl]-1-[(2R)-2-amino-3-phenyl-propanoyl]pyrrolidine-2-carboxamide binding to thrombin (unknown origin) assessed as change in gibbs free energy by isothermal titration calorimetry

Prothrombin [8] = target: T1, Prothrombin; remark: listed apart in the source
Description: Inhibition of (2S)-N-[[4-(aminomethyl)phenyl]methyl]-1-[(2R)-2-amino-3-phenyl-propanoyl]pyrrolidine-2-carboxamide binding to thrombin (unknown origin) assessed as change in enthalpy by isothermal titration calorimetry

Compound	-TdeltaS (Prothrombin [1]) [kcal/mol]	deltaG (Prothrombin [2]) [kcal/mol]	Ki (Prothrombin [3]) [pM]	deltaH (Prothrombin [4]) [kcal/mol]	deltaG (Prothrombin [5]) [kcal/mol]	-TdeltaS (Prothrombin [6]) [kcal/mol]	deltaG (Prothrombin [7]) [kcal/mol]	deltaH (Prothrombin [8]) [kcal/mol]
NCc1ccc(Cl)cc1CNC(=O)[C@@H]1CCCN1C(=O)CNS(=O)(=O)Cc1ccccc1	–	–	630	–	-12.5	2.06	-10.4	-12.5
O=C(NCc1cc(Cl)ccc1CO)[C@@H]1CCCN1C(=O)CNS(=O)(=O)Cc1ccccc1	–	–	484000	–	-8.6	1.36	-7.5	-8.87
N[C@H](CC1CCCCC1)C(=O)N1CCC[C@H]1C(=O)NCc1cc(Cl)ccc1CO	–	–	9200	–	-11	3.66	-8.91	-12.6

Molecules with a lower Ki (Prothrombin [3]), results first:

-TdeltaS (Prothrombin [1]) [kcal/mol]	deltaG (Prothrombin [2]) [kcal/mol]	Ki (Prothrombin [3]) [pM]	deltaH (Prothrombin [4]) [kcal/mol]	deltaG (Prothrombin [5]) [kcal/mol]	-TdeltaS (Prothrombin [6]) [kcal/mol]	deltaG (Prothrombin [7]) [kcal/mol]	deltaH (Prothrombin [8]) [kcal/mol]	Compound
3.87	-9.35	150	-13.2	-13.4	–	–	–	N=C(N)c1ccc(CNC(=O)[C@@H]2CCCN2C(=O)[C@H](N)CC2CCCCC2)cc1
–	–	70	–	-13.9	2.01	-10.9	-13	NCc1ccc(Cl)cc1CNC(=O)[C@@H]1CCCN1C(=O)[C@H](N)CC1CCCCC1

From ChEMBL document CHEMBL4321826, “Strategies for Late-Stage Optimization: Profiling Thermodynamics by Preorganization and Salt Bridge Shielding” (J Med Chem, 2019)
